Source: publication PMC8213057, “Targeting ALK2: An Open Science Approach to Developing Therapeutics for the Treatment of Diffuse Intrinsic Pontine Glioma” (Journal of Medicinal Chemistry, 2020)

Assays:
ERN1/IRE1 = ERN1/IRE1 (Homo sapiens, UniProt O75460); assay: biochemical; details: read-out: % enzyme activity, 1 μM; Run 1, Run 2
MEKK3 = molecular target: T1, MEKK3 (Homo sapiens, UniProt Q99759); details: 1 μM; Run 1, Run 2
T1 sequence (Q99759 1-626): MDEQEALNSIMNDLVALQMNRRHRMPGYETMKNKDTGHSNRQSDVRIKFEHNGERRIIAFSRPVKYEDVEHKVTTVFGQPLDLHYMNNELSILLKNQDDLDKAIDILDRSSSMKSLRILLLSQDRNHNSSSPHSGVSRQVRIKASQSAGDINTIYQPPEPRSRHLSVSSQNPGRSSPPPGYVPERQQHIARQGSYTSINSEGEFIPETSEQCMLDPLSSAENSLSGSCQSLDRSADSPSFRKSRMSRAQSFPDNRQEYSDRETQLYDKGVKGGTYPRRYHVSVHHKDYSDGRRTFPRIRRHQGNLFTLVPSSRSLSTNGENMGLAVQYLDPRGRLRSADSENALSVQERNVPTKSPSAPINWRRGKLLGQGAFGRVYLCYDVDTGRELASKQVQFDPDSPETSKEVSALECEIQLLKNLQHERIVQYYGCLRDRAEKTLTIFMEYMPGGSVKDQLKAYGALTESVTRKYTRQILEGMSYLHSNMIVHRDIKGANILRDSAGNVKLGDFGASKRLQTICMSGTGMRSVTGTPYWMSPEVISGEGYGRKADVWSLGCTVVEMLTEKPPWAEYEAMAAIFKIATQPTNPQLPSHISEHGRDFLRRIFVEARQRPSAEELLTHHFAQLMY

MELK = MELK (Homo sapiens, UniProt Q14680); assay: biochemical; details: read-out: % enzyme activity, 1 μM; Run 1, Run 2
RSK2 = RSK2 (Homo sapiens, UniProt P51812); assay: biochemical; details: read-out: % enzyme activity, 1 μM; Run 1, Run 2
PDGFRb = PDGFRb (Homo sapiens, UniProt P09619); assay: biochemical; details: read-out: % enzyme activity, 1 μM; Run 1, Run 2
CDK1/cyclin E = CDK1/cyclin E (Homo sapiens, UniProt P06493); details: 1 μM; Run 1, Run 2
CDK3/cyclin E2 = CDK3/cyclin E2 (Homo sapiens, UniProt Q00526); assay: biochemical; details: read-out: % enzyme activity, 1 μM; Run 1, Run 2
NEK6 = NEK6 (Homo sapiens, UniProt Q9HC98); details: 1 μM; Run 1, Run 2
ROS/ROS1 = ROS/ROS1 (Homo sapiens, UniProt P08922); assay: biochemical; details: read-out: % enzyme activity, 1 μM; Run 1, Run 2
PKMYT1 = molecular target: T2, PKMYT1 (Homo sapiens, UniProt Q99640); assay: biochemical; details: read-out: % enzyme activity, 1 μM; Run 1, Run 2
T2 sequence (Q99640 1-499): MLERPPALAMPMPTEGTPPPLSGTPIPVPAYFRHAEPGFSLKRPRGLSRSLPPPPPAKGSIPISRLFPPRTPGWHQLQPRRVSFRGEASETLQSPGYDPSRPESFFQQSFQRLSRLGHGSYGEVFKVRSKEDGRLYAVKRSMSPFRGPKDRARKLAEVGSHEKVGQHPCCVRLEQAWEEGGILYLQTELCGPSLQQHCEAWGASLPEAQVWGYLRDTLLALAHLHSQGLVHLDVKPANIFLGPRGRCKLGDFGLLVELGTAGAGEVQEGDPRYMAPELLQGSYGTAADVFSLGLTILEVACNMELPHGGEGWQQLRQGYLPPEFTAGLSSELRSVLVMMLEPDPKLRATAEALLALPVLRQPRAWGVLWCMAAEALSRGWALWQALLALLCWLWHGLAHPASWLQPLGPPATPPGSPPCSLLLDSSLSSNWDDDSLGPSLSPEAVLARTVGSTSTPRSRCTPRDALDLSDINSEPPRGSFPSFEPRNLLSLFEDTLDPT

LYN = LYN (Homo sapiens, UniProt P07948); details: 1 μM; Run 1, Run 2
RIPK2 = RIPK2 (Homo sapiens, UniProt O43353); assay: biochemical; details: read-out: % enzyme activity, 1 μM; Run 1, Run 2
PBK/TOPK = molecular target: T3, PBK/TOPK (Homo sapiens, UniProt Q96KB5); assay: biochemical; details: read-out: % enzyme activity, 1 μM; Run 1, Run 2
T3 sequence (Q96KB5 1-322): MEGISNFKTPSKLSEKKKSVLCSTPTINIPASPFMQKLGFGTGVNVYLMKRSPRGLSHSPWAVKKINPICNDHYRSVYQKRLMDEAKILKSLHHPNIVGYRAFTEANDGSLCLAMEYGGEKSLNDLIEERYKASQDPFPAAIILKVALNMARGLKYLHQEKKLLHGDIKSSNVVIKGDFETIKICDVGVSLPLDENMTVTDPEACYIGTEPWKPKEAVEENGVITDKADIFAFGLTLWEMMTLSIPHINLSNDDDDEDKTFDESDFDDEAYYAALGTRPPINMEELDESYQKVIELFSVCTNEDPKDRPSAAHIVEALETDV

ROS/ROS1, sequence (P08922 28-2347): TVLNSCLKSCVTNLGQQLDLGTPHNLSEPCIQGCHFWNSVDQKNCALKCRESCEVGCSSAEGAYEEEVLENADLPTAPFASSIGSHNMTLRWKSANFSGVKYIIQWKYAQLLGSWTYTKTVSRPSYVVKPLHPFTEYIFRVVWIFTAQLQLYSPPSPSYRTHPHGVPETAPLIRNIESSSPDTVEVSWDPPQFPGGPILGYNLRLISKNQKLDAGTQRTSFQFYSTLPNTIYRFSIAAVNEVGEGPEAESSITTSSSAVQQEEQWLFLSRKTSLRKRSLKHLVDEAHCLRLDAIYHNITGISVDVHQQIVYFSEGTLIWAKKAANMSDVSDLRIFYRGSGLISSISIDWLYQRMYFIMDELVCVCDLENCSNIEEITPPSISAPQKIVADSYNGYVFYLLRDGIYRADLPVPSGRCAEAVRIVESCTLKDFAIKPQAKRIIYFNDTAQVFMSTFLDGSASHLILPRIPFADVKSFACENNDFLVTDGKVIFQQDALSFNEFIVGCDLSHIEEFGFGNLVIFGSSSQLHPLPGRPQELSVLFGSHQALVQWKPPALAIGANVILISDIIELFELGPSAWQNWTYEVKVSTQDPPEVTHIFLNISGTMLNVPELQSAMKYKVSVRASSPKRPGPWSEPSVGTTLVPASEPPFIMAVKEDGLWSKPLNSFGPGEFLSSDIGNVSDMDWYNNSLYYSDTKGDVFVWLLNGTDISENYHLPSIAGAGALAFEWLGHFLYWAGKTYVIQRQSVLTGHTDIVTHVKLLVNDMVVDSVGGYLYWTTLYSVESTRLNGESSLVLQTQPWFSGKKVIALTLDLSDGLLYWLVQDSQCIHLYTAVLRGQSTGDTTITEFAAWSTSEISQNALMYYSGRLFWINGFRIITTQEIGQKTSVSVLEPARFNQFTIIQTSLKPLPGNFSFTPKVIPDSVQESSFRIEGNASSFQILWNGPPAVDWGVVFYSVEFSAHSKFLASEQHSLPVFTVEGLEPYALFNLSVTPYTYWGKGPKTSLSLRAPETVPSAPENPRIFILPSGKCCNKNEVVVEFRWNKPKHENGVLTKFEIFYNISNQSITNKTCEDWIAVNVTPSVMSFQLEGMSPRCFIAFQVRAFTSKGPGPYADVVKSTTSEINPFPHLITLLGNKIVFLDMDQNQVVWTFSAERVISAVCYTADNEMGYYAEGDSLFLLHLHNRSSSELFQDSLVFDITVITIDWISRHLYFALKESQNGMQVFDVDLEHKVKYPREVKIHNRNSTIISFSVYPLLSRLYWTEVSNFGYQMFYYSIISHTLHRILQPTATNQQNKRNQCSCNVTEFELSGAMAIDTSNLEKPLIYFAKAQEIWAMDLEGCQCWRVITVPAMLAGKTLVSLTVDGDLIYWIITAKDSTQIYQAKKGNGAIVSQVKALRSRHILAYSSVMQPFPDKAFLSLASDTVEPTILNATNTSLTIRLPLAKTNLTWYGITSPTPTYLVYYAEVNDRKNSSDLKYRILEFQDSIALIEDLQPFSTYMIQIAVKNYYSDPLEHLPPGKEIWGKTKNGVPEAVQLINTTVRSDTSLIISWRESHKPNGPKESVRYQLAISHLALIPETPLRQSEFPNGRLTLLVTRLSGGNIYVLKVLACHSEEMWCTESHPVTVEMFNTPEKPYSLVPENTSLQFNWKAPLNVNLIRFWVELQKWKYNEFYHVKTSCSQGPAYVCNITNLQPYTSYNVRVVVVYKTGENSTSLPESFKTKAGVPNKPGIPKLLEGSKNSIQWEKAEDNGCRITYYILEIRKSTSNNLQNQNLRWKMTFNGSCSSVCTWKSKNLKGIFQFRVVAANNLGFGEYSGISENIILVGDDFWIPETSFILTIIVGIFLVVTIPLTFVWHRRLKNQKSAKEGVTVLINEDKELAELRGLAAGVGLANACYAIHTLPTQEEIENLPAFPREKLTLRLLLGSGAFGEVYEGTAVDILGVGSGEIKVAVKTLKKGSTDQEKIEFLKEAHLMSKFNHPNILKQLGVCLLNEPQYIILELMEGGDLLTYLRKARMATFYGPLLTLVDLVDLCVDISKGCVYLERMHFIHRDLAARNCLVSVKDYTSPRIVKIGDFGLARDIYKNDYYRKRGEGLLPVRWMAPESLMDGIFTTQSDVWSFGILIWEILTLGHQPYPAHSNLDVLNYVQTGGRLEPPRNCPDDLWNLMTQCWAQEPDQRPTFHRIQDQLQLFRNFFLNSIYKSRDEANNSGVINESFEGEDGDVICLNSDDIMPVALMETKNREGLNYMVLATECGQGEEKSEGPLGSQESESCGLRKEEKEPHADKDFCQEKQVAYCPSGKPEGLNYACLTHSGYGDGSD
MELK, sequence (Q14680 whole entry): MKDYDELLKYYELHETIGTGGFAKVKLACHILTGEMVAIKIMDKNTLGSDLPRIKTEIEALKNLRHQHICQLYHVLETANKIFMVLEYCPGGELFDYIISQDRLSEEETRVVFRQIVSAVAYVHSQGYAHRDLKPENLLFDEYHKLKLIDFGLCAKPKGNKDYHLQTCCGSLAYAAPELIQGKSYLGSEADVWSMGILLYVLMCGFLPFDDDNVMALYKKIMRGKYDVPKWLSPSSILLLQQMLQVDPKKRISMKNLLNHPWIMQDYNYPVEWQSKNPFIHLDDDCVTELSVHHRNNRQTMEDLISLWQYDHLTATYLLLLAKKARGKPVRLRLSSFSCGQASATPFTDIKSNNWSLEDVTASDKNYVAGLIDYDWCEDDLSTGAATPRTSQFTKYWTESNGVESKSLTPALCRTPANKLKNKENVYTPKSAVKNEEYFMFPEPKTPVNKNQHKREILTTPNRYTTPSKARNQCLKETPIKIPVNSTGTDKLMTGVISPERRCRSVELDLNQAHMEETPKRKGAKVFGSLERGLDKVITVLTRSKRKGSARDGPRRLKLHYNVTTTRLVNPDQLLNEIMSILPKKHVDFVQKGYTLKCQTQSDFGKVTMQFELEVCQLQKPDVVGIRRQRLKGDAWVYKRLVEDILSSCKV
RIPK2, sequence (O43353 whole entry): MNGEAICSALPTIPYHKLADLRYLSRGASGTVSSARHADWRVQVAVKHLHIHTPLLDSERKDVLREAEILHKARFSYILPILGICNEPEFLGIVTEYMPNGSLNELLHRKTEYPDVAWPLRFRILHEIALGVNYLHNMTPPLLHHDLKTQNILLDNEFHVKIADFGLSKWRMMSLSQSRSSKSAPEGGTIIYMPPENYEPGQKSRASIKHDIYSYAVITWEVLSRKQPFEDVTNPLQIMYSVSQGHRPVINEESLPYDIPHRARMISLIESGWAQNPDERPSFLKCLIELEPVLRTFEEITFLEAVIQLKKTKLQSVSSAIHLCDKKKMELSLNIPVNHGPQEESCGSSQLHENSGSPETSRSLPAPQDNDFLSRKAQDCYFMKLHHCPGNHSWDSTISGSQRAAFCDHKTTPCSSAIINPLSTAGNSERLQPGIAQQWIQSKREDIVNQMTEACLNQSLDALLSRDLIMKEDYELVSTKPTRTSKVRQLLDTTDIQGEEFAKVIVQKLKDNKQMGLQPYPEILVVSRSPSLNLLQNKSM
LYN, sequence (P07948 whole entry): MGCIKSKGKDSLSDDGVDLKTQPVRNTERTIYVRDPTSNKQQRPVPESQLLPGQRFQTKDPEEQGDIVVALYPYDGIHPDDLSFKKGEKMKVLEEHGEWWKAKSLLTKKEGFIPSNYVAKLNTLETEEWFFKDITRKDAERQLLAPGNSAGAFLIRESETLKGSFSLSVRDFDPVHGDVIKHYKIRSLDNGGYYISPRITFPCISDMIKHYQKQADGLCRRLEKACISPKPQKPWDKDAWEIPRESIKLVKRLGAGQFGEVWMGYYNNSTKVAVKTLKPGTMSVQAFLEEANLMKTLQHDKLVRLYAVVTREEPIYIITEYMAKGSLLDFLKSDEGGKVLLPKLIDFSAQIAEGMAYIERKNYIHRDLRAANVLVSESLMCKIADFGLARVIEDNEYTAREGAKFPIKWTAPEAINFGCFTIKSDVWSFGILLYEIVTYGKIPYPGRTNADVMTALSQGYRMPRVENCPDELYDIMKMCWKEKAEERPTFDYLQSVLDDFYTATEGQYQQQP
ERN1/IRE1, sequence (O75460 19-977): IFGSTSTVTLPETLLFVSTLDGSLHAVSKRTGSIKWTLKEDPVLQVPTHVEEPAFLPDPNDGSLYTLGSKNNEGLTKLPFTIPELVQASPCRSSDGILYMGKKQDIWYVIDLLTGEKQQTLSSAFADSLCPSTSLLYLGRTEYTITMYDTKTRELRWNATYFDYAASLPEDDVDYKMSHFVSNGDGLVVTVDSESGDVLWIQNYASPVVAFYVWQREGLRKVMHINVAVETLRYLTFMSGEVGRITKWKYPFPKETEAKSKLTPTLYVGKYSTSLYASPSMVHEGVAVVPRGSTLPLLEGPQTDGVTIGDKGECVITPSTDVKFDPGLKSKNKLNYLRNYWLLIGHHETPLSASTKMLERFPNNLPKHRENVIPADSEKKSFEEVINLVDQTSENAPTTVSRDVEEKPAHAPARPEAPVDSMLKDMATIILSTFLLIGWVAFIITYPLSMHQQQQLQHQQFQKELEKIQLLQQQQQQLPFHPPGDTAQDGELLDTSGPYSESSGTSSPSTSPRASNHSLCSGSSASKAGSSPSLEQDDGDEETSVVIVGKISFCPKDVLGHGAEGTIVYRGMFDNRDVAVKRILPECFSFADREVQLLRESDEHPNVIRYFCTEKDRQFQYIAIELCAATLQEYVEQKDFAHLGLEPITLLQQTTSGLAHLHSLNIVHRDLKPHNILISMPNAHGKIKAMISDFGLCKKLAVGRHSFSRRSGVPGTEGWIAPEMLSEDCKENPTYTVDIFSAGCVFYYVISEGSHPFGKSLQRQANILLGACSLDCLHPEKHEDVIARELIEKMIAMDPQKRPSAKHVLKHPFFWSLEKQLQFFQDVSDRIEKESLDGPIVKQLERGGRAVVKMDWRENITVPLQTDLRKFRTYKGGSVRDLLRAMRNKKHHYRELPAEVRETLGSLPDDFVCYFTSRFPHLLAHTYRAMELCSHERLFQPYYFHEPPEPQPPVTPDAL

| SMILES | remaining activity at 1 µM (ERN1/IRE1) [%] | % enzyme activity (MEKK3) [%] | remaining activity at 1 µM (MELK) [%] | remaining activity at 1 µM (RSK2) [%] | remaining activity at 1 µM (PDGFRb) [%] | % enzyme activity (CDK1/cyclin E) [%] | remaining activity at 1 µM (CDK3/cyclin E2) [%] | % enzyme activity (NEK6) [%] | remaining activity at 1 µM (ROS/ROS1) [%] | remaining activity at 1 µM (PKMYT1) [%] | % enzyme activity (LYN) [%] | remaining activity at 1 µM (RIPK2) [%] | remaining activity at 1 µM (PBK/TOPK) [%] |
| --- | --- | --- | --- | --- | --- | --- | --- | --- | --- | --- | --- | --- | --- |
| COc1cc(-c2cncc(-c3ccc(N4CCN(C)CC4)cc3)c2C)cc(F)c1C(N)=O [Compound 26a, 2-Fluoro-6-methoxy-4-(4-methyl-5-(4-(4-methylpiperazin-1-yl)phenyl)pyridin-3-yl)benzamide] | 92.8 | 93.57 | 99.2 | 101 | 77.3 | 97.19 | 89.5 | 98.81 | 87.7 | 101 | 79.23 | 71.1 | 91.8 |
| COc1cc(-c2cncc(-c3ccc(N4C[C@@H](C)N(C)[C@@H](C)C4)cc3)c2C)cc(F)c1C(N)=O [Compound 26c, 2-Fluoro-6-methoxy-4-(4-methyl-5-(4-((3R,5S)-3,4,5-trimethylpiperazin-1-yl)phenyl)pyridin-3-yl)benzamide] | 91 | 100.00 | 99.4 | 103 | 92.1 | 91.92 | 86.2 | 103.36 | 97.4 | 94.5 | 88.67 | 89.7 | 103 |
